In BindingDB's records for doi:10.1021/bi301387m (University of Auckland, 2013) one finds Ki data, which are given here for two compounds.

The test has as its target T1, Anthranilate phosphoribosyltransferase (Mycobacterium tuberculosis (strain CDC 1551 / Oshkosh), UniProt P9WFX4).
T1 sequence (P9WFX4 whole entry): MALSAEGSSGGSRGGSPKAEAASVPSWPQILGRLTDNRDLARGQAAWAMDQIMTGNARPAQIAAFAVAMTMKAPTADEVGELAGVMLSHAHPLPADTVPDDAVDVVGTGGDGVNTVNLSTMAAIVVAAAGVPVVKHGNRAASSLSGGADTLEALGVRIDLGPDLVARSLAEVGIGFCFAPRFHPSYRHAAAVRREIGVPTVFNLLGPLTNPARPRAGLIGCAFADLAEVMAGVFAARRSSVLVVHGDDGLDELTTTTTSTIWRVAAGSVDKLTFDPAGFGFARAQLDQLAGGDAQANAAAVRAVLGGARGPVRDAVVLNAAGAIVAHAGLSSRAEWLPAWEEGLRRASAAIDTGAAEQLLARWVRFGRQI
The experiment in a line: Fluoresence-based Assay.

Source text: An enzyme-coupled absorbance-based assay developed in house was used to determine the inhibitor-enzyme kinetic parameters of Mtb-AnPRT, including ki values for the inhibitors.

A word on the Ki: it is a dissociation constant, usually derived from enzyme kinetics or from competition with a known ligand. The compound `COc1ccc(C(=O)O)cc1N` [ACS No 126] had an inhibitory constant (Ki) of 60 µM. This counts as double-digit micromolar. Regarding `NC(CCCNc1ccc([N+](=O)[O-])cc1[N+](=O)[O-])CC(=O)O` (configuration not stated) [ACS No 165], the affinity corresponds to a Ki of 79 µM.
